Non-standard residues stand in square brackets, D forms with d. Residues, ends and D or L forms follow the SMILES beside them. 4Abz = Nc1ccc(C(=O)O)cc1
How the values were obtained:
Type in all cases: biochemical
carboxypeptidase A [1] = experiment: Spectrophotometric CP-A activity determination (hippuricase, benzoate hydroxylase, decrease of NADPH/NADH absorbance at 340 nm)
Method: […] of serum (the same as used in Example 6) was added to 0.5 ml of a test reagent solution (pH 8.0) containing 10 mM p-hydroxybenzoylglycyl-L-tyrosine, 3000 U/1 hippuricase, 0.2 mM NADPH, 10000 U/1 p-hydroxybenzoate hydroxylase and 100 mM boric acid.
The decrease in the absorbance by the solution was measured at 340 nm of light at a temperature of 37°C during the course of the reaction. There was used for the measurement a reaction rate analyser in which the reaction time was five minutes. The activity value (mU/ml) of CP-A was automatically printed out in the analyser.
The calculation of activity was performed according to the following formula: [formula] wherein ε = 6.22 x 10^3 (Molecular extinction coefficient of NADPH)
The activity of CP-A was determined by repeating the procedure shown in Example 8 except that o-hydroxybenzoyl-L-isoleucyl-L-phenylalanine was used instead of p-hydroxybenzoylglycyl-L-tyrosine, salicylate hydroxylase was used instead of p-hydroxybenzoate hydroxylase, and nicotinamide adenine dinucleotide in reduced form (NADH) was used instead of NADPH.
The activity of CP-A was determined by repeating the procedure shown in Example 8 with a mixture prepared by adding 0.05 ml of serum (the same as used in Example 6) to 0.5 ml of a test reagent solution (pH 8.0) containing 30 mM p-methoxybenzoyl-L-leucyl-L-phenylalanine, 1000 U/1 hippuricase, 0.2 mM NADH, 20000 U/1 p-methoxybenzoate hydroxylase and 100 mM phosphoric acid.

carboxypeptidase A [2] = experiment: Colourimetric CP-A activity determination (hippuricase, NaNO2 diazotisation, azo dye at 505 nm); details: same serum as Example 6; 20 mM substrate, pH 8.0, 37°C, 20 minutes; repeated 20 times, CV 5.3%
Method: 0.05 ml of serum (the same as used in Example 6) containing CP-A was added to 0.5 ml of a test reagent solution (pH 8.0) containing 20 mM p-aminobenzoyl-L-alanyl-L-tyrosine, 0.5 M NaCl, 3000 U/1 hippuricase and 100 mM boric acid. After this mixture had been allowed to stand at 37°C for 20 minutes, 0.5 ml of a solution containing 2 mM NaN02 and 1 mM NaOH was added to the mixture, and the mixture was allowed to stand at room temperature for 10 minutes. 0.5 ml of a reagent solution containing 1 mM potassium l-naphthol-2-sulphate, 50 mM boric acid and 200 mM NaOH was added to the mixture. The absorbance by the solution was measured at 505 nm of light. This absorbance is referred to as Absorbance A.
Absorbance B was measured by repeating the procedure as shown above but using 0.05 ml of an aqueous solution containing 10 uM p-aminobenzoic acid instead of 0.05 ml of serum, and Absorbance C was measured by repeating the procedure as shown above but using 0.05 ml of distilled water instead of 0.05 ml of serum.
The activity value (mU/ml) of CP-A can be calculated by the following equation: [formula]

carboxypeptidase A [3] = experiment: Colourimetric CP-A activity determination (hippuricase, 4-aminoantipyrine, periodate, quinonimine dye at 505 nm); details: serum containing carboxypeptidase A; 10 mM substrate, pH 7.8, 37°C, 20 minutes; test repeated 20 times, CV 3.4%
Method: 0.1 ml of serum containing carboxypeptidase A was added to 0.5 ml of a test reagent solution of pH 7.8 containing 10 mM p-hydroxybenzoyl-L-alanyl-L-phenylalanine, 0.1 M sodium chloride, 3000 U/1 hippuricase, 2.5 mM 4-aminoantipyrine and 100 mM N-2-hydroxyethyl piperazine-N-2-ethane sulphonic acid. The mixture was incubated at 37°C for 20 minutes. 1.5 ml of a reaction termination solution containing 6.5 mM sodium periodate was added to this reaction mixture. The mixture obtained was incubated at 37°C for five minutes, so that quinonimine dye was formed. The absorbance of the reaction mixture was measured at a light wavelength of 505 nm. This absorbance is referred to as Absorbance A.
Separately, for a blank (comparison) test, in the procedure as mentioned above, 1.5 ml of a reaction termination solution containing 6.5 mM sodium […] was added to the test reagent solution before 0.1 ml of serum containing carboxypeptidase A was added to the test reagent solution. The absorbance of the blank test reagent was then measured in the same manner as described above, at a light wavelength of 505 nm. This absorbance is referred to as Absorbance B.
The activity value (mU/ml) of carboxypeptidase A can be calculated by the following equation: [formula] where ε = 12000 (Molecular extinction coefficient or guinon- imine dye)

`COc1ccc(C(=O)N[C@@H](CC(C)C)C(=O)N[C@@H](Cc2ccccc2)C(=O)O)cc1` [p-methoxybenzoyl-L-leucyl-L-phenylalanine] gave an Activity value (carboxypeptidase A [1]; same serum as Example 6, 30 mM substrate, pH 8.0, 0.2 mM NADH, p-methoxybenzoate hydroxylase, 100 mM phosphoric acid, CV 4.7%) of 2.5 mU/ml.

For `O=C(CNC(=O)c1ccc(O)cc1)N[C@@H](Cc1ccc(O)cc1)C(=O)O` [p-hydroxybenzoylglycyl-L-tyrosine], the Activity value (carboxypeptidase A [1]; same serum as Example 6, 10 mM substrate, pH 8.0, 37°C, 0.2 mM NADPH, p-hydroxybenzoate hydroxylase, repeated 20 times, CV 5.2%) was 6.2 mU/ml.

`C[C@H](NC(=O)c1ccc(N)cc1)C(=O)N[C@@H](Cc1ccc(O)cc1)C(=O)O` [p-aminobenzoyl-L-alanyl-L-tyrosine] (H-[4Abz]-Ala-Tyr-OH) was tested, and the Activity value (carboxypeptidase A [2]) was 1.7 mU/ml.

`C[C@H](NC(=O)c1ccc(O)cc1)C(=O)N[C@@H](Cc1ccccc1)C(=O)O` [p-hydroxybenzoyl-L-alanyl-L-phenylalanine] showed an Activity value (carboxypeptidase A [3]) of 5.1 mU/ml.

With `CC[C@H](C)[C@H](NC(=O)c1ccccc1O)C(=O)N[C@@H](Cc1ccccc1)C(=O)O` [o-hydroxybenzoyl-L-isoleucyl-L-phenylalanine] the Activity value (carboxypeptidase A [1]; procedure of Example 8 with salicylate hydroxylase and NADH, CV 7.0%) was 1.1 mU/ml.
